The kinase profiling compilation of Christmann-Franck et al. (2016)
Several values for one entry are separate records, joined by “and”; a condition that tells them apart may be missing. Equal entries are not always repeated.

How the values were obtained:
Assay in all cases: radiometric filter-binding kinase assay, Kinase HotSpot
Settings in all cases: compound 0.5 µM; ATP 10 µM
LYN (human) = LYN (human) (UniProt P07948)
GRK6 (human) = GRK6 (human) (UniProt P43250)
PRKD3 (human) = PRKD3 (human) (UniProt O94806)
ROCK1 (human) = ROCK1 (human) (UniProt Q13464)
Chain of ROCK1 (human) (Q13464 whole entry, looked up): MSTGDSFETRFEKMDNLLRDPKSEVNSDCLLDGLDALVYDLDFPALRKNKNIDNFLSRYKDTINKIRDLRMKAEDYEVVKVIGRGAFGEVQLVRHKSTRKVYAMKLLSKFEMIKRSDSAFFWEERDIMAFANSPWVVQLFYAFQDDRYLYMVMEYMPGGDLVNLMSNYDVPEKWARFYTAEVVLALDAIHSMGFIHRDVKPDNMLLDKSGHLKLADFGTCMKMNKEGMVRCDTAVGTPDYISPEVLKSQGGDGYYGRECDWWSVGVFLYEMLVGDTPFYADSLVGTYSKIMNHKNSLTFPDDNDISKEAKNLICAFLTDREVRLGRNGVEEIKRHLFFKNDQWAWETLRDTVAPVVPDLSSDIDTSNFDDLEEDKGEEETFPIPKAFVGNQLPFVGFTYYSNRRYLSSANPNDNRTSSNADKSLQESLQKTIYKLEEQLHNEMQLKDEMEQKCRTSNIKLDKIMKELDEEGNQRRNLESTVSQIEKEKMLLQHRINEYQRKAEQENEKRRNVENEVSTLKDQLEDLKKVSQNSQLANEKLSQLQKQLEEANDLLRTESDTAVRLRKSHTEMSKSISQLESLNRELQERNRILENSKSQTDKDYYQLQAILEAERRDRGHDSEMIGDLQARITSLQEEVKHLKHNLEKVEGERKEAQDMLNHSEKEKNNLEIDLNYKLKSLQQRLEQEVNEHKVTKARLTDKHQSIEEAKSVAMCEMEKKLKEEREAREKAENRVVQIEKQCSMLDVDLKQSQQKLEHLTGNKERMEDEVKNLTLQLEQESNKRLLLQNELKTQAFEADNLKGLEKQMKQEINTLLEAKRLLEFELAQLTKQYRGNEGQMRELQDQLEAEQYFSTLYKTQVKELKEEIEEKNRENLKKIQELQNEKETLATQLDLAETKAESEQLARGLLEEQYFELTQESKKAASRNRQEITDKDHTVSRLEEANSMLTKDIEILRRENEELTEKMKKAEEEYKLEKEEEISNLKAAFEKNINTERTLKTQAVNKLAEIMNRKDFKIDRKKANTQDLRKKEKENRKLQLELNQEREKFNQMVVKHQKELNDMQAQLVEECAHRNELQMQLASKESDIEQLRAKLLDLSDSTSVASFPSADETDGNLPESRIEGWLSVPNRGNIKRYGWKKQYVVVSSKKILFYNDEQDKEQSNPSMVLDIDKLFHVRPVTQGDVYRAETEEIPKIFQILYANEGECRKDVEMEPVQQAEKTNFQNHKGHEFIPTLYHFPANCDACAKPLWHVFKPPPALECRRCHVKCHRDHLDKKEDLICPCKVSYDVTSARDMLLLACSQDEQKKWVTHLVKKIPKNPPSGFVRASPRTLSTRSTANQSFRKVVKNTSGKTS

TBK1 (human) = TBK1 (human) (UniProt Q9UHD2)
Chain of TBK1 (human) (Q9UHD2 whole entry, looked up): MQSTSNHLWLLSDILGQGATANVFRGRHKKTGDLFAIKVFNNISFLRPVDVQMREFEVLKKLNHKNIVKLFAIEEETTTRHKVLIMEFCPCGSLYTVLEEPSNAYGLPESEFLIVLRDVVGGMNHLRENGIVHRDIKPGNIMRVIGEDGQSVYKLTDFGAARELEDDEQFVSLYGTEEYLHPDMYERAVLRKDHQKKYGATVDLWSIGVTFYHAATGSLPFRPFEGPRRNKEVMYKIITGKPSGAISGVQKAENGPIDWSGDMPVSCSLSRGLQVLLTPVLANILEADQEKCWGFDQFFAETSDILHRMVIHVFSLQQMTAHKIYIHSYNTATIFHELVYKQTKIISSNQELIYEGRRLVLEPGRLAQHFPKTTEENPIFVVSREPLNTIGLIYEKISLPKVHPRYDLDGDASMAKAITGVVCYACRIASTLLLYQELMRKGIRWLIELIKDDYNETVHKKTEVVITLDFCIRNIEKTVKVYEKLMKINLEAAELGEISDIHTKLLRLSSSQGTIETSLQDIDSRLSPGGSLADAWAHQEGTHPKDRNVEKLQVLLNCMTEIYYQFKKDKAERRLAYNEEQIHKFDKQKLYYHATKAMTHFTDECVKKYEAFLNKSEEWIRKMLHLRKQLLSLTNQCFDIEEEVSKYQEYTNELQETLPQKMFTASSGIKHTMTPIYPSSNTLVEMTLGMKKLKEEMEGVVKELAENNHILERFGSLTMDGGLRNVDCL

NEK7 (human) = NEK7 (human) (UniProt Q8TDX7)
SIK2 (human) = SIK2 (human) (UniProt Q9H0K1)
CAMK1G (human) = CAMK1G (human) (UniProt Q96NX5)
CLK2 (human) = CLK2 (human) (UniProt P49760)
NEK9 (human) = NEK9 (human) (UniProt Q8TD19)
GRK7 (human) = GRK7 (human) (UniProt Q8WTQ7)
CAMK1 (human) = CAMK1 (human) (UniProt Q14012)
Chain of CAMK1 (human) (Q14012 whole entry, looked up): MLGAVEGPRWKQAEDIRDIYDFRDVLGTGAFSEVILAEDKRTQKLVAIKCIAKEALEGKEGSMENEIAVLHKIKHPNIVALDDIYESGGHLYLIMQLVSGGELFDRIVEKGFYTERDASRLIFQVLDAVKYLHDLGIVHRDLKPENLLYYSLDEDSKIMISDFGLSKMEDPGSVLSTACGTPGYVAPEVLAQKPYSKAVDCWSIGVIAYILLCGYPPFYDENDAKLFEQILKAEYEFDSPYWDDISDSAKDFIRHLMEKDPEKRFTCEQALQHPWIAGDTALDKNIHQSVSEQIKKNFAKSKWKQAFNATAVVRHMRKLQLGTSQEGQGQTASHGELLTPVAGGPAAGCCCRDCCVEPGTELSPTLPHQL

HIPK3 (human) = HIPK3 (human) (UniProt Q9H422)
MAP3K7 TAB1 (human) = MAP3K7 TAB1 (human) (UniProt O43318+Q15750)
STK39 (human) = STK39 (human) (UniProt Q9UEW8)
EPHB1 (human) = EPHB1 (human) (UniProt P54762)
DMPK (human) = DMPK (human) (UniProt Q09013)
MARK3 (human) = MARK3 (human) (UniProt P27448)
Chain of MARK3 (human) (P27448 whole entry, looked up): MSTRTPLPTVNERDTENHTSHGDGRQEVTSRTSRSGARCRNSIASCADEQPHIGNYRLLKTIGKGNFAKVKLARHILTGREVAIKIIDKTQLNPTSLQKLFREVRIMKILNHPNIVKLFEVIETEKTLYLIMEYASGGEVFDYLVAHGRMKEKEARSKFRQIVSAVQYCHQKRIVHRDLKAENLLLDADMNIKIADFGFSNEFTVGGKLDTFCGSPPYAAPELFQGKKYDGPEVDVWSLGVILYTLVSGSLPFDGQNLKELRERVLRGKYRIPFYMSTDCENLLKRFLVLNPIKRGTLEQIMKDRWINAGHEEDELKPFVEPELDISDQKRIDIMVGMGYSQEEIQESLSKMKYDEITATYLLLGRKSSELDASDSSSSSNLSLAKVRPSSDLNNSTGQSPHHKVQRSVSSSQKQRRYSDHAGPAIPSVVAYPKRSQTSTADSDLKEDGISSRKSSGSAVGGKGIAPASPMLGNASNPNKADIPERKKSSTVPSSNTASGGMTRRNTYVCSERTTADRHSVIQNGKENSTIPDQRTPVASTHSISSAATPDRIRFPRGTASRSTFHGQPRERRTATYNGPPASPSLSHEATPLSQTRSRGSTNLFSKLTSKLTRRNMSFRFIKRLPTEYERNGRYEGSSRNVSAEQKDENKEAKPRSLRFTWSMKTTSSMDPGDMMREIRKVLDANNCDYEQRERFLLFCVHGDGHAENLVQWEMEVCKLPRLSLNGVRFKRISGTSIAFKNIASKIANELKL

DAPK2 (human) = DAPK2 (human) (UniProt Q9UIK4)
PRKX (human) = PRKX (human) (UniProt P51817)
EPHA2 (human) = EPHA2 (human) (UniProt P29317)
NEK6 (human) = NEK6 (human) (UniProt Q9HC98)
ACVR1 (human) = ACVR1 (human) (UniProt Q04771)
DAPK1 (human) = DAPK1 (human) (UniProt P53355)
FES (human) = FES (human) (UniProt P07332)
NEK11 (human) = NEK11 (human) (UniProt Q8NG66)
EPHB4 (human) = EPHB4 (human) (UniProt P54760)
Chain of EPHB4 (human) (P54760 whole entry, looked up): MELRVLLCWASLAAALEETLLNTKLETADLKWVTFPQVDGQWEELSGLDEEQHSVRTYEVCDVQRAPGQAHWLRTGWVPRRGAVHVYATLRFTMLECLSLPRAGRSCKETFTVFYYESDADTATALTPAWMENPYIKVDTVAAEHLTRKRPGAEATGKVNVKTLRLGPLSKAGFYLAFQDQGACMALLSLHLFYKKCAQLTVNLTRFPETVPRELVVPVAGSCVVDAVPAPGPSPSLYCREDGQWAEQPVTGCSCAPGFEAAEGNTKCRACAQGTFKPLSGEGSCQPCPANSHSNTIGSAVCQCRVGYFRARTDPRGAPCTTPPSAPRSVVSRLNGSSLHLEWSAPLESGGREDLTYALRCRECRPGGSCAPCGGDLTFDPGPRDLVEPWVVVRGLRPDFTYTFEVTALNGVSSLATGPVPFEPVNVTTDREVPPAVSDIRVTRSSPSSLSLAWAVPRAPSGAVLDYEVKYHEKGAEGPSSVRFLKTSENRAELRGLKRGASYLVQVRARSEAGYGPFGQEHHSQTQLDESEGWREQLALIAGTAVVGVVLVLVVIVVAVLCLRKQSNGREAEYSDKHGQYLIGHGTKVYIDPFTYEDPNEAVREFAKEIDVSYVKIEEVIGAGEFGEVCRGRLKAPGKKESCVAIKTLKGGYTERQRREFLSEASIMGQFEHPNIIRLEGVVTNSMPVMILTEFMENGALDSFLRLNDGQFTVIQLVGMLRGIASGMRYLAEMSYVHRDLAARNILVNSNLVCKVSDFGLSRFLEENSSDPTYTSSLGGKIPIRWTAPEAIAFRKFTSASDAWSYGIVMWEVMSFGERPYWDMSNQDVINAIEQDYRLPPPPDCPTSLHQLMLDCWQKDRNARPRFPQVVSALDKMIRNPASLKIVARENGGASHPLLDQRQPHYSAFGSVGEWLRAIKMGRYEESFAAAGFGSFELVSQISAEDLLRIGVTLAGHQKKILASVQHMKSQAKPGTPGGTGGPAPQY

NLK (human) = NLK (human) (UniProt Q9UBE8)
PRKCG (human) = PRKCG (human) (UniProt P05129)
IRAK4 (human) = IRAK4 (human) (UniProt Q9NWZ3)
EPHA7 (human) = EPHA7 (human) (UniProt Q15375)
MAPK9 (human) = MAPK9 (human) (UniProt P45984)
BRSK1 (human) = BRSK1 (human) (UniProt Q8TDC3)
EPHA3 (human) = EPHA3 (human) (UniProt P29320)
HIPK2 (human) = HIPK2 (human) (UniProt Q9H2X6)
WNK3 (human) = WNK3 (human) (UniProt Q9BYP7)
CAMK2D (human) = CAMK2D (human) (UniProt Q13557)
MAPK10 (human) = MAPK10 (human) (UniProt P53779)
CDK6 CCND1 (human) = CDK6 CCND1 (human) (UniProt Q00534+P24385)
STK10 (human) = STK10 (human) (UniProt O94804)
EPHA1 (human) = EPHA1 (human) (UniProt P21709)
CSNK1G3 (human) = CSNK1G3 (human) (UniProt Q9Y6M4)

With `O=C(CCCc1ccc(-c2ccccc2F)cc1)Nc1ccc(O)cc1` the residual activity (LYN (human)) was 102% and 87.7%, the residual activity (GRK6 (human)) was 104% and the residual activity (PRKD3 (human)) was 96.9%. For the same molecule, the residual activity (ROCK1 (human)) was 106%, the residual activity (TBK1 (human)) was 98.2% and the residual activity (NEK7 (human)) was 97.3%. The residual activity (SIK2 (human)) was 102%, the residual activity (CAMK1G (human)) was 96.8% and the residual activity (CLK2 (human)) was 103%. The residual activity (NEK9 (human)) was 92.7%, the residual activity (GRK7 (human)) was 109% and the residual activity (CAMK1 (human)) was 101%. It also gave a residual activity (HIPK3 (human)) of 99.4%, a residual activity (MAP3K7 TAB1 (human)) of 105% and a residual activity (STK39 (human)) of 95.4%. The residual activity (EPHB1 (human)) was 96.4%, the residual activity (DMPK (human)) was 130% and the residual activity (MARK3 (human)) was 101%. The residual activity (DAPK2 (human)) was 106%, the residual activity (PRKX (human)) was 106% and the residual activity (EPHA2 (human)) was 101%. The residual activity (NEK6 (human)) was 99.4%, the residual activity (ACVR1 (human)) was 95.2% and the residual activity (DAPK1 (human)) was 110%. For the same molecule, the residual activity (FES (human)) was 100%, the residual activity (NEK11 (human)) was 100% and the residual activity (EPHB4 (human)) was 106%. The residual activity (NLK (human)) was 101%, the residual activity (PRKCG (human)) was 98% and the residual activity (IRAK4 (human)) was 86.3%. For the same molecule, the residual activity (EPHA7 (human)) was 104%, the residual activity (MAPK9 (human)) was 106% and the residual activity (BRSK1 (human)) was 103%. The residual activity (EPHA3 (human)) was 100%, the residual activity (HIPK2 (human)) was 112% and the residual activity (WNK3 (human)) was 109%. It also gave a residual activity (CAMK2D (human)) of 108%, a residual activity (MAPK10 (human)) of 100% and a residual activity (CDK6 CCND1 (human)) of 98.2%. The residual activity (STK10 (human)) was 95.3%, the residual activity (EPHA1 (human)) was 117% and the residual activity (CSNK1G3 (human)) was 104%.
For `O=C(O)/C=C/c1cc(Br)c(Br)c(Br)c1Br`, the residual activity (LYN (human)) was 102% and 99.3%, the residual activity (GRK6 (human)) was 97.2% and the residual activity (PRKD3 (human)) was 87.9%. It also gave a residual activity (ROCK1 (human)) of 97.6%, a residual activity (TBK1 (human)) of 91.4% and a residual activity (NEK7 (human)) of 98%. The residual activity (SIK2 (human)) was 107%, the residual activity (CAMK1G (human)) was 94.1% and the residual activity (CLK2 (human)) was 85%. It also gave a residual activity (NEK9 (human)) of 94.7%, a residual activity (GRK7 (human)) of 105% and a residual activity (CAMK1 (human)) of 105%. It also gave a residual activity (HIPK3 (human)) of 96.7%, a residual activity (MAP3K7 TAB1 (human)) of 98.4% and a residual activity (STK39 (human)) of 97.9%. The residual activity (EPHB1 (human)) was 95.2%, the residual activity (DMPK (human)) was 103% and the residual activity (MARK3 (human)) was 104%. For the same molecule, the residual activity (DAPK2 (human)) was 104%, the residual activity (PRKX (human)) was 96% and the residual activity (EPHA2 (human)) was 97.9%. For the same molecule, the residual activity (NEK6 (human)) was 102%, the residual activity (ACVR1 (human)) was 92.1% and the residual activity (DAPK1 (human)) was 73.7%. It also gave a residual activity (FES (human)) of 88.8%, a residual activity (NEK11 (human)) of 101% and a residual activity (EPHB4 (human)) of 81.2%. The residual activity (NLK (human)) was 99.1%, the residual activity (PRKCG (human)) was 89.4% and the residual activity (IRAK4 (human)) was 86.6%. It also gave a residual activity (EPHA7 (human)) of 94.1%, a residual activity (MAPK9 (human)) of 96.4% and a residual activity (BRSK1 (human)) of 80.5%. The residual activity (EPHA3 (human)) was 92.3%, the residual activity (HIPK2 (human)) was 82.2% and the residual activity (WNK3 (human)) was 89.8%. For the same molecule, the residual activity (CAMK2D (human)) was 77.7%, the residual activity (MAPK10 (human)) was 96.3% and the residual activity (CDK6 CCND1 (human)) was 102%. For the same molecule, the residual activity (STK10 (human)) was 85.8%, the residual activity (EPHA1 (human)) was 94.6% and the residual activity (CSNK1G3 (human)) was 92.1%.
With `O=C1NC(=O)/C(=C\c2ccc3nccnc3c2)S1` the residual activity (LYN (human)) was 99.2% and 99.6%, the residual activity (GRK6 (human)) was 97% and the residual activity (PRKD3 (human)) was 94.7%. The residual activity (ROCK1 (human)) was 94%, the residual activity (TBK1 (human)) was 90.6% and the residual activity (NEK7 (human)) was 105%. It also gave a residual activity (SIK2 (human)) of 102%, a residual activity (CAMK1G (human)) of 105% and a residual activity (CLK2 (human)) of 74%. The residual activity (NEK9 (human)) was 111%, the residual activity (GRK7 (human)) was 99.8% and the residual activity (CAMK1 (human)) was 95.7%. It also gave a residual activity (HIPK3 (human)) of 92.4%, a residual activity (MAP3K7 TAB1 (human)) of 98.7% and a residual activity (STK39 (human)) of 104%. For the same molecule, the residual activity (EPHB1 (human)) was 93.4%, the residual activity (DMPK (human)) was 112% and the residual activity (MARK3 (human)) was 94.3%. It also gave a residual activity (DAPK2 (human)) of 139%, a residual activity (PRKX (human)) of 89.2% and a residual activity (EPHA2 (human)) of 99.9%. For the same molecule, the residual activity (NEK6 (human)) was 109%, the residual activity (ACVR1 (human)) was 102% and the residual activity (DAPK1 (human)) was 105%. For the same molecule, the residual activity (FES (human)) was 96.4%, the residual activity (NEK11 (human)) was 111% and the residual activity (EPHB4 (human)) was 101%. For the same molecule, the residual activity (NLK (human)) was 92.4%, the residual activity (PRKCG (human)) was 105% and the residual activity (IRAK4 (human)) was 99.9%. It also gave a residual activity (EPHA7 (human)) of 96.7%, a residual activity (MAPK9 (human)) of 96% and a residual activity (BRSK1 (human)) of 92.4%. The residual activity (EPHA3 (human)) was 97.1%, the residual activity (HIPK2 (human)) was 101% and the residual activity (WNK3 (human)) was 85.8%. The residual activity (CAMK2D (human)) was 93.7%, the residual activity (MAPK10 (human)) was 96% and the residual activity (CDK6 CCND1 (human)) was 97.5%. It also gave a residual activity (STK10 (human)) of 90.5%, a residual activity (EPHA1 (human)) of 91.8% and a residual activity (CSNK1G3 (human)) of 79.9%.
`Cn1nc2c3c(cccc31)C(=O)c1ccccc1-2` was tested, and the residual activity (LYN (human)) was 96.1% and 97.7%, the residual activity (GRK6 (human)) was 89.2% and the residual activity (PRKD3 (human)) was 65.5%. The residual activity (ROCK1 (human)) was 98.4%, the residual activity (TBK1 (human)) was 88.8% and the residual activity (NEK7 (human)) was 93.1%. The residual activity (SIK2 (human)) was 100%, the residual activity (CAMK1G (human)) was 95.5% and the residual activity (CLK2 (human)) was 94.5%. It also gave a residual activity (NEK9 (human)) of 96.6%, a residual activity (GRK7 (human)) of 113% and a residual activity (CAMK1 (human)) of 104%. The residual activity (HIPK3 (human)) was 113%, the residual activity (MAP3K7 TAB1 (human)) was 83.9% and the residual activity (STK39 (human)) was 101%. The residual activity (EPHB1 (human)) was 94.6%, the residual activity (DMPK (human)) was 107% and the residual activity (MARK3 (human)) was 96.6%. For the same molecule, the residual activity (DAPK2 (human)) was 104%, the residual activity (PRKX (human)) was 101% and the residual activity (EPHA2 (human)) was 104%. For the same molecule, the residual activity (NEK6 (human)) was 108%, the residual activity (ACVR1 (human)) was 110% and the residual activity (DAPK1 (human)) was 86.4%. For the same molecule, the residual activity (FES (human)) was 94.4%, the residual activity (NEK11 (human)) was 105% and the residual activity (EPHB4 (human)) was 99.9%. It also gave a residual activity (NLK (human)) of 100%, a residual activity (PRKCG (human)) of 90.6% and a residual activity (IRAK4 (human)) of 97.3%. The residual activity (EPHA7 (human)) was 104%, the residual activity (MAPK9 (human)) was 85.2% and the residual activity (BRSK1 (human)) was 92.5%. The residual activity (EPHA3 (human)) was 93.5%, the residual activity (HIPK2 (human)) was 105% and the residual activity (WNK3 (human)) was 92%. The residual activity (CAMK2D (human)) was 90%, the residual activity (MAPK10 (human)) was 97.3% and the residual activity (CDK6 CCND1 (human)) was 88%. The residual activity (STK10 (human)) was 94.5%, the residual activity (EPHA1 (human)) was 94.8% and the residual activity (CSNK1G3 (human)) was 81.4%.
